From patent EP0298820A1, “Peptide derivatives and their therapeutic application” (INSTITUT NATIONAL DE LA SANTE ET DE LA RECHERCHE MEDICALE …, priority 1987, dated 1989)

System: tumeur M₄
Assay: Inhibition of development of lung metastases (M4 tumour cells injected i.v. with peptide)
Assay type: in vivo, souris C57BL/6
Settings: injected in tail vein with 10⁵ M₄ cells, lung colonies counted after 15 days, PBS control 117,5 ± 14,4
Procedure: On a utilisé la tumeur M₄, une sous-lignée obtenue par sélection d'un sarcome induit par le benzopyrène chez la souris C57BL/6 (Mantovani Int. J. Cancer, 22, 741, 1978).
Les cellules M₄ ont été désagrégées avec de la DNAse et de la collagènase pendant 30 minutes à 37°C. On a lavé les cellules deux fois avec du PBS et on les a remis en suspension dans le même tampon à la concentration de […]. On a injecté lentement dans le veine de la queue de souris C57BL/6 0,2 ml de PBS contenant différentes concentrations de peptide et 10⁵ cellules M₄/souris.
Au bout de 15 jours on a tué les souris et excisé les poumons, et on les a fixés avec une solution de Bouin. On a compté visuellement les colonies. Les résultats obtenus avec le peptide KQRGDF sont donnés dans le tableau suivant.

H-KQRGDF-OH [KQRGDF, H-Lys-Gln-Arg-Gly-Asp-Phe-OH]
Nombre de colonie (0,75 mg/souris): 25,3 ± 9,4 | Nombre de colonie (1,5 mg/souris): 0,2 | Nombre de colonie (3,0 mg/souris): 0
